# Source: PubChem BioAssay AID2060625 (Molecular Pharmacology Branch, DTP, NCI, 2025)
# Test system: 186277-243-T-J2-PDC spheroids with HUVEC/MSC, viability
# Assay: Anticancer human tumor 186277-243-T-J2-PDC patient-derived colon adenocarcinoma cell line growth inhibition [CLK]
# Conditions: second compound 1 µM; first compound 0.1 µM; hits give low values
# In short: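 Multi-cell-type spheroids combined patient-derived tumor cells with HUVEC endothelial cells and human mesenchymal stem cells. Paired agents were dosed in half-log steps down from about clinical Cmax, or from 10 microM where Cmax was unknown.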
# 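Also: compound exposure lasted seven days before readout; 100% = DMSO vehicle control wells.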
row,SMILES,"viability, T/C [%]"
1,C=C(F)C(=O)N1CCN(c2nc(OCC3CCCN3C)nc3c2CCN(c2cccc4cccc(Cl)c24)C3)CC1CC#N (stereo unspecified) + CN1CCN(c2cc(C(=O)Nc3cc4cc(-c5cnn(C)c5)ccc4cn3)ccn2)CC1,0.34

# Same assay, conditions: second compound 1 µM; first compound 0.316 µM; hits give low values
row,SMILES,"viability, T/C [%]"
1,COc1c(OCCCN2CCOCC2)ccc2c3n(c(=NC(=O)c4cnc(N)nc4)nc12)CCN3 + CNC(=O)c1ccc(Nc2nc(OC3CCCC3)c3c(-c4ccc5nc(C)oc5c4)c[nH]c3n2)c(OC)c1,5.94
2,O=C(c1cc(Cc2n[nH]c(=O)c3ccccc23)ccc1F)N1CCN(C(=O)C2CC2)CC1 + CNC(=O)c1ccc(Nc2nc(OC3CCCC3)c3c(-c4ccc5nc(C)oc5c4)c[nH]c3n2)c(OC)c1,41.7
3,COC1C=CCC(C)C(C)S(=O)(=O)NC(=O)c2ccc3c(c2)N(CC2CCC21)CC1(CCCc2cc(Cl)ccc21)CO3 (stereo unspecified) + CN1CCN(c2cc(C(=O)Nc3cc4cc(-c5cnn(C)c5)ccc4cn3)ccn2)CC1,0.97
4,C#Cc1c(F)ccc2cc(O)cc(-c3ncc4c(N5CC6CCC(C5)N6)nc(OCC56CCCN5CC(F)C6)nc4c3F)c12 (stereo unspecified) + CNC(=O)c1ccc(Nc2nc(OC3CCCC3)c3c(-c4ccc5nc(C)oc5c4)c[nH]c3n2)c(OC)c1,6.68
5,C=C(F)C(=O)N1CCN(c2nc(OCC3CCCN3C)nc3c2CCN(c2cccc4cccc(Cl)c24)C3)CC1CC#N (stereo unspecified) + CN1CCN(c2cc(C(=O)Nc3cc4cc(-c5cnn(C)c5)ccc4cn3)ccn2)CC1,1.16

# Same assay, conditions: second compound 1 µM; first compound 1 µM; hits give low values
row,SMILES,"viability, T/C [%]"
1,COc1c(OCCCN2CCOCC2)ccc2c3n(c(=NC(=O)c4cnc(N)nc4)nc12)CCN3 + CNC(=O)c1ccc(Nc2nc(OC3CCCC3)c3c(-c4ccc5nc(C)oc5c4)c[nH]c3n2)c(OC)c1,2.82
2,O=C(c1cc(Cc2n[nH]c(=O)c3ccccc23)ccc1F)N1CCN(C(=O)C2CC2)CC1 + CNC(=O)c1ccc(Nc2nc(OC3CCCC3)c3c(-c4ccc5nc(C)oc5c4)c[nH]c3n2)c(OC)c1,37.7
3,COC1C=CCC(C)C(C)S(=O)(=O)NC(=O)c2ccc3c(c2)N(CC2CCC21)CC1(CCCc2cc(Cl)ccc21)CO3 (stereo unspecified) + CN1CCN(c2cc(C(=O)Nc3cc4cc(-c5cnn(C)c5)ccc4cn3)ccn2)CC1,0.6
4,C#Cc1c(F)ccc2cc(O)cc(-c3ncc4c(N5CC6CCC(C5)N6)nc(OCC56CCCN5CC(F)C6)nc4c3F)c12 (stereo unspecified) + CNC(=O)c1ccc(Nc2nc(OC3CCCC3)c3c(-c4ccc5nc(C)oc5c4)c[nH]c3n2)c(OC)c1,8.68
5,C=C(F)C(=O)N1CCN(c2nc(OCC3CCCN3C)nc3c2CCN(c2cccc4cccc(Cl)c24)C3)CC1CC#N (stereo unspecified) + CN1CCN(c2cc(C(=O)Nc3cc4cc(-c5cnn(C)c5)ccc4cn3)ccn2)CC1,0.32

# Same assay, conditions: second compound 1 µM; first compound 3.16 µM; hits give low values
row,SMILES,"viability, T/C [%]"
1,O=C(c1cc(Cc2n[nH]c(=O)c3ccccc23)ccc1F)N1CCN(C(=O)C2CC2)CC1 + CNC(=O)c1ccc(Nc2nc(OC3CCCC3)c3c(-c4ccc5nc(C)oc5c4)c[nH]c3n2)c(OC)c1,41.8
2,COC1C=CCC(C)C(C)S(=O)(=O)NC(=O)c2ccc3c(c2)N(CC2CCC21)CC1(CCCc2cc(Cl)ccc21)CO3 (stereo unspecified) + CN1CCN(c2cc(C(=O)Nc3cc4cc(-c5cnn(C)c5)ccc4cn3)ccn2)CC1,0.3
3,C#Cc1c(F)ccc2cc(O)cc(-c3ncc4c(N5CC6CCC(C5)N6)nc(OCC56CCCN5CC(F)C6)nc4c3F)c12 (stereo unspecified) + CNC(=O)c1ccc(Nc2nc(OC3CCCC3)c3c(-c4ccc5nc(C)oc5c4)c[nH]c3n2)c(OC)c1,7.28
4,C=C(F)C(=O)N1CCN(c2nc(OCC3CCCN3C)nc3c2CCN(c2cccc4cccc(Cl)c24)C3)CC1CC#N (stereo unspecified) + CN1CCN(c2cc(C(=O)Nc3cc4cc(-c5cnn(C)c5)ccc4cn3)ccn2)CC1,0.22

# Same assay, conditions: second compound 1 µM; first compound 10 µM; hits give low values
row,SMILES,"viability, T/C [%]"
1,O=C(c1cc(Cc2n[nH]c(=O)c3ccccc23)ccc1F)N1CCN(C(=O)C2CC2)CC1 + CNC(=O)c1ccc(Nc2nc(OC3CCCC3)c3c(-c4ccc5nc(C)oc5c4)c[nH]c3n2)c(OC)c1,43.9
2,COC1C=CCC(C)C(C)S(=O)(=O)NC(=O)c2ccc3c(c2)N(CC2CCC21)CC1(CCCc2cc(Cl)ccc21)CO3 (stereo unspecified) + CN1CCN(c2cc(C(=O)Nc3cc4cc(-c5cnn(C)c5)ccc4cn3)ccn2)CC1,0.24
3,C#Cc1c(F)ccc2cc(O)cc(-c3ncc4c(N5CC6CCC(C5)N6)nc(OCC56CCCN5CC(F)C6)nc4c3F)c12 (stereo unspecified) + CNC(=O)c1ccc(Nc2nc(OC3CCCC3)c3c(-c4ccc5nc(C)oc5c4)c[nH]c3n2)c(OC)c1,3.31
4,C=C(F)C(=O)N1CCN(c2nc(OCC3CCCN3C)nc3c2CCN(c2cccc4cccc(Cl)c24)C3)CC1CC#N (stereo unspecified) + CN1CCN(c2cc(C(=O)Nc3cc4cc(-c5cnn(C)c5)ccc4cn3)ccn2)CC1,2.22

# Same assay, conditions: second compound 3.16 µM; first compound 0.00316 µM; hits give low values
row,SMILES,"viability, T/C [%]"
1,COc1c(OCCCN2CCOCC2)ccc2c3n(c(=NC(=O)c4cnc(N)nc4)nc12)CCN3 + CNC(=O)c1ccc(Nc2nc(OC3CCCC3)c3c(-c4ccc5nc(C)oc5c4)c[nH]c3n2)c(OC)c1,17

# Same assay, conditions: second compound 3.16 µM; first compound 0.01 µM; hits give low values
row,SMILES,"viability, T/C [%]"
1,COc1c(OCCCN2CCOCC2)ccc2c3n(c(=NC(=O)c4cnc(N)nc4)nc12)CCN3 + CNC(=O)c1ccc(Nc2nc(OC3CCCC3)c3c(-c4ccc5nc(C)oc5c4)c[nH]c3n2)c(OC)c1,15

# Same assay, conditions: second compound 3.16 µM; first compound 0.0316 µM; hits give low values
row,SMILES,"viability, T/C [%]"
1,COc1c(OCCCN2CCOCC2)ccc2c3n(c(=NC(=O)c4cnc(N)nc4)nc12)CCN3 + CNC(=O)c1ccc(Nc2nc(OC3CCCC3)c3c(-c4ccc5nc(C)oc5c4)c[nH]c3n2)c(OC)c1,8.99
2,O=C(c1cc(Cc2n[nH]c(=O)c3ccccc23)ccc1F)N1CCN(C(=O)C2CC2)CC1 + CNC(=O)c1ccc(Nc2nc(OC3CCCC3)c3c(-c4ccc5nc(C)oc5c4)c[nH]c3n2)c(OC)c1,36.8
3,COC1C=CCC(C)C(C)S(=O)(=O)NC(=O)c2ccc3c(c2)N(CC2CCC21)CC1(CCCc2cc(Cl)ccc21)CO3 (stereo unspecified) + CN1CCN(c2cc(C(=O)Nc3cc4cc(-c5cnn(C)c5)ccc4cn3)ccn2)CC1,1.99
4,C#Cc1c(F)ccc2cc(O)cc(-c3ncc4c(N5CC6CCC(C5)N6)nc(OCC56CCCN5CC(F)C6)nc4c3F)c12 (stereo unspecified) + CNC(=O)c1ccc(Nc2nc(OC3CCCC3)c3c(-c4ccc5nc(C)oc5c4)c[nH]c3n2)c(OC)c1,12
5,C=C(F)C(=O)N1CCN(c2nc(OCC3CCCN3C)nc3c2CCN(c2cccc4cccc(Cl)c24)C3)CC1CC#N (stereo unspecified) + CN1CCN(c2cc(C(=O)Nc3cc4cc(-c5cnn(C)c5)ccc4cn3)ccn2)CC1,1.31
